Cc1cccc(N(C)C(=S)Oc2ccc3ccccc3c2)c1
solubility (mole fraction)
Conditions | in acetic acid | in ethanol | in ethylene glycol | in isobutanol | in isopropanol | in methanol | in n-butanol | in n-octanol | in n-propanol | in propylene glycol
283.15 K | 0.00186 | 0.000558 | 5.01e-05 | 0.000544 | 0.000365 | 0.000402 | 0.00082 | 0.00145 | 0.000679 | 0.000155
288.15 K | 0.00249 | 0.000765 | 5.88e-05 | 0.000734 | 0.00054 | 0.0005 | 0.00115 | 0.00189 | 0.00104 | 0.000214
293.15 K | 0.00307 | 0.000957 | 7.5e-05 | 0.000933 | 0.000731 | 0.000691 | 0.00154 | 0.00251 | 0.00136 | 0.000264
298.15 K | 0.00359 | 0.00125 | 8.76e-05 | 0.00137 | 0.000965 | 0.000843 | 0.00207 | 0.00311 | 0.00171 | 0.000335
303.15 K | 0.0045 | 0.00161 | 0.000107 | 0.00174 | 0.00125 | 0.00102 | 0.00264 | 0.004 | 0.00218 | 0.000413
308.15 K | 0.00574 | 0.00196 | 0.000129 | 0.0025 | 0.00168 | 0.00119 | 0.00345 | 0.00526 | 0.00286 | 0.000542
313.15 K | 0.00779 | 0.00241 | 0.000156 | 0.00316 | 0.00225 | 0.00149 | 0.00448 | 0.00708 | 0.00351 | 0.00068
318.15 K | 0.00993 | 0.00287 | 0.000201 | 0.00409 | 0.00273 | 0.00181 | 0.00568 | 0.00896 | 0.00451 | 0.000785
323.15 K | 0.0127 | 0.00365 | 0.000258 | 0.00544 | 0.00357 | 0.00224 | 0.0076 | 0.0115 | 0.00606 | 0.000953
328.15 K | 0.0156 | 0.00448 | 0.00031 | 0.00705 | 0.00437 | 0.00267 | 0.0097 | 0.0148 | 0.00772 | 0.00125

— BigSolDB 2.1
